{
  "source": "patent US12077797B2",
  "about": "“Oligopeptide with lipid-lowering activity, preparation method and application thereof” (Nanjing University of Finance and Economics, priority 2022, dated 2024)",
  "system": "HepG2 cells",
  "test": "MTT assay, cell proliferation viability of normal HepG2 cells",
  "format": "cell-based",
  "details": "256 μM, FIG. 5A",
  "experimental": "i) MTT (also referred to as thiazole blue) assay is used to detect the effects of various components (LPH-I, LPH-II and LPH-III) on the cell proliferation viability of normal HepG2 cells: HepG2 cells in logarithmic growth period are taken and prepared into a cell suspension of 4×10^5 cells/mL with the high glucose DMEM medium containing 10% FBS. Sample wells are set in a 96-well plate, and 100 μL of cell suspension is added to each sample well, and the cells are cultured in a cell incubator for 24 hours to adhere to the wall. After removing the culture medium from the sample wells, the components LPH-I (>10 kDa), LPH-II (3-10 kDa) and LPH-III (<3 kDa) are respectively dissolved in the high glucose DMEM culture medium containing 10% FBS to prepare an oligopeptide culture medium with a concentration of 150 μg/mL, and then added to each sample well, with a volume of 100 μL per well. A blank well is set, no cells are present compared with the sample wells, and 100 μL PBS phosphate buffer (1×, pH 7.2) is used to replace the oligopeptide culture medium. A control well is set with cells compared with the sample wells, and 100 μL PBS phosphate buffer (1×, pH 7.2) is used to replace the oligopeptide culture medium. […] The absorbance is measured at 570 nanometers (nm) wavelength in a microplate reader. […]",
  "note": "Where a SMILES comes first, the peptide text is derived from it.",
  "data": [
    {"smiles": "C[C@H](N)C(=O)N[C@@H](Cc1ccc(O)cc1)C(=O)N1CCC[C@H]1C(=O)N[C@@H](Cc1ccccc1)C(=O)O", "note": "[AYPF] (H-AYPF-OH; N-terminus and C-terminus assumed)", "values": [
      {"measurement": "effect on the cell viability", "value": "a certain effect"}
    ]}
  ]
}
